US20050107423A1, “Quinolone antibacterial agents” (priority 2003, published 2005)
≈ marks a conversion by molar mass, not a printed value.

Columns and labels:
Experiment in all cases: Antibacterial assay, microtitration MIC (Test A)
Format in all cases: cell-based
[1] = system: E. faecalis MGH-2; details: strain MGH-2; for MIC: Enterococcus faecalis, MGH2, Gram Positive Bacteria, read-out: Minimum Inhibitory Concentrations E. faecalis MGH-2
Procedure: (§1) The compounds of the present invention were tested against an assortment of Gram-negative and Gram-positive organisms using standard microtitration techniques (Cohen et. al., Antimicrob., 1985;28:766; Heifetz, et. al., Antimicrob., 1974;6:124). The results of the evaluation are shown in Tables 1A and B, wherein “-” means no data.

[2] = system: S. aureus UC-76; details: strain UC-76; for MIC: Staphylococcus aureus, UC76, Gram Positive Bacteria, read-out: Minimum Inhibitory Concentrations S. aureus UC-76
Procedure: as §1

[3] = system: S pyogenes C203; details: Gram Positive Bacteria, strain C203; for MIC: read-out: Minimum Inhibitory Concentrations S pyogenes C203
Procedure: as §1

[4] = system: S. pneumo SV-1; details: Gram Positive Bacteria, strain SV-1; for MIC: read-out: Minimum Inhibitory Concentrations S. pneumo SV-1
Procedure: as §1

Structure (SMILES) | MIC [1] | MIC [2] | MIC [3] | MIC [4] | Minimum Inhibitory Concentrations E. faecalis MGH-2 ([1]; Gram Positive Bacteria) | Minimum Inhibitory Concentrations S. aureus UC-76 ([2]; Gram Positive Bacteria) | Minimum Inhibitory Concentrations S pyogenes C203 [3] | Minimum Inhibitory Concentrations S. pneumo SV-1 [4]
COCC(O)C1CCN(c2c(F)cc3c(=O)c(C(=O)O)cn(C4CC4)c3c2C)C1 (centres unmarked) [drawing 370] | 1 mg/L (≈ 2.47 µM) | 0.06 mg/L (≈ 0.148 µM) | 1 mg/L (≈ 2.47 µM) | 0.5 mg/L (≈ 1.24 µM) | – | – | – | –
COc1c(N2CCC(C(O)CO)C2)c(F)cc2c(=O)c(C(=O)O)cn(C3CC3)c12 (centres unmarked) [drawing 355] | 0.03 mg/L (≈ 0.0738 µM) | 0.002 mg/L (≈ 0.00492 µM) | 0.03 mg/L (≈ 0.0738 µM) | 0.03 mg/L (≈ 0.0738 µM) | – | – | – | –
Cc1c(N2CC(CO)C(C)(C)C2)c(F)cc2c(=O)c(C(=O)O)cn(C3CC3)c12 (centres unmarked) [drawing 427] | 0.06 mg/L (≈ 0.154 µM) | 0.002 mg/L (≈ 0.00515 µM) | 0.06 mg/L (≈ 0.154 µM) | 0.03 mg/L (≈ 0.0772 µM) | – | – | – | –
Cc1c(N2CC(C(C)O)C(C)(C)C2)c(F)cc2c(=O)c(C(=O)O)cn(C3CC3)c12 (centres unmarked) [drawing 432] | 0.06 mg/L (≈ 0.149 µM) | 0.008 mg/L (≈ 0.0199 µM) | 0.125 mg/L (≈ 0.311 µM) | 0.06 mg/L (≈ 0.149 µM) | – | – | – | –
COc1c(N2CCC(C(O)C(F)F)C2)c(F)cc2c(=O)c(C(=O)O)cn(C3CC3)c12 (centres unmarked) [drawing 349] | 0.125 mg/L (≈ 0.293 µM) | 0.008 mg/L (≈ 0.0188 µM) | 0.25 mg/L (≈ 0.586 µM) | 0.06 mg/L (≈ 0.141 µM) | – | – | – | –
COCC(O)C1CN(c2c(F)cc3c(=O)c(C(=O)O)cn(C4CC4)c3c2C)CC1(C)C (centres unmarked) [drawing 435] | 0.25 mg/L (≈ 0.578 µM) | 0.015 mg/L (≈ 0.0347 µM) | 0.5 mg/L (≈ 1.16 µM) | 0.25 mg/L (≈ 0.578 µM) | – | – | – | –
Cc1c(N2C[C@@H](CO)[C@@H](CO)C2)c(F)cc2c(=O)c(C(=O)O)cn(C3CC3)c12 [drawing 405] | 0.06 mg/L (≈ 0.154 µM) | 0.004 mg/L (≈ 0.0102 µM) | 0.06 mg/L (≈ 0.154 µM) | 0.06 mg/L (≈ 0.154 µM) | – | – | – | –
COc1c(N2C[C@@H](CCO)[C@@H](CCO)C2)c(F)cc2c(=O)c(C(=O)O)cn(C3CC3)c12 [drawing 415] | 0.125 mg/L (≈ 0.288 µM) | 0.004 mg/L (≈ 0.00921 µM) | 0.06 mg/L (≈ 0.138 µM) | 0.06 mg/L (≈ 0.138 µM) | – | – | – | –
COCCOCC(O)C1CN(c2c(F)cc3c(=O)c(C(=O)O)cn(C4CC4)c3c2C)CC1(C)C (centres unmarked) [drawing 433] | 0.5 mg/L (≈ 1.05 µM) | 0.03 mg/L (≈ 0.063 µM) | 1 mg/L (≈ 2.1 µM) | 1 mg/L (≈ 2.1 µM) | – | – | – | –
Cc1c(N2C[C@@H]3CC[C@@](O)(CO)[C@@H]3C2)c(F)cc2c(=O)c(C(=O)O)cn(C3CC3)c12 [drawing 461] | 0.125 mg/L (≈ 0.3 µM) | 0.008 mg/L (≈ 0.0192 µM) | 0.25 mg/L (≈ 0.6 µM) | 0.06 mg/L (≈ 0.144 µM) | – | – | – | –
Cc1c(N2C[C@@H](COC(=O)C(C)C)[C@@H](COC(=O)C(C)C)C2)c(F)cc2c(=O)c(C(=O)O)cn(C3CC3)c12 [drawing 413] | 4 mg/L (≈ 7.54 µM) | 1 mg/L (≈ 1.88 µM) | 0.25 mg/L (≈ 0.471 µM) | 0.125 mg/L (≈ 0.236 µM) | – | – | – | –
COC[C@H]1CN(c2c(F)cc3c(=O)c(C(=O)O)cn(C4CC4)c3c2C)C[C@H]1CO [drawing 406] | 0.125 mg/L (≈ 0.309 µM) | 0.004 mg/L (≈ 0.00989 µM) | 0.06 mg/L (≈ 0.148 µM) | 0.03 mg/L (≈ 0.0742 µM) | – | – | – | –
Cc1c(N2CCC(C(O)C(C)(F)F)C2)c(F)cc2c(=O)c(C(=O)O)cn(C3CC3)c12 (centres unmarked) [drawing 369] | 0.25 mg/L (≈ 0.589 µM) | 0.004 mg/L (≈ 0.00942 µM) | 0.25 mg/L (≈ 0.589 µM) | 0.125 mg/L (≈ 0.295 µM) | – | – | – | –
O=C(O)c1cn(-c2ccc(F)cc2F)c2nc(N3C[C@@H](CO)[C@@H](CO)C3)c(F)cc2c1=O [drawing 398] | 0.5 mg/L (≈ 1.11 µM) | 0.06 mg/L (≈ 0.134 µM) | 0.5 mg/L (≈ 1.11 µM) | 0.5 mg/L (≈ 1.11 µM) | – | – | – | –
COc1c(N2CCC(CO)C2)c(F)cc2c(=O)c(C(=O)O)cn(C3CC3)c12 (centres unmarked) [drawing 342] | 0.06 mg/L (≈ 0.159 µM) | 0.00403 mg/L (≈ 0.0107 µM) | 0.06 mg/L (≈ 0.159 µM) | 0.06 mg/L (≈ 0.159 µM) | – | – | – | –
Nc1nc(-n2cc(C(=O)O)c(=O)c3cc(F)c(N4C[C@@H](CO)[C@@H](CO)C4)c(Cl)c32)c(F)cc1F [drawing 402] | 2 mg/L (≈ 4.01 µM) | 0.125 mg/L (≈ 0.251 µM) | 0.5 mg/L (≈ 1 µM) | 0.5 mg/L (≈ 1 µM) | – | – | – | –
Cc1c(N2CC(C)(CO)C(C)(CO)C2)c(F)cc2c(=O)c(C(=O)O)cn(C3CC3)c12 (centres unmarked) [drawing 439] | – | – | – | – | 0.25 µg/mL | 0.15 µg/mL | 0.25 µg/mL | 0.25 µg/mL
CC(=O)OC[C@@H]1CN(c2c(F)cc3c(=O)c(C(=O)O)cn(C4CC4)c3c2C)C[C@@H]1COC(C)=O [drawing 411] | 0.125 mg/L (≈ 0.263 µM) | 0.015 mg/L (≈ 0.0316 µM) | 0.125 mg/L (≈ 0.263 µM) | 0.06 mg/L (≈ 0.126 µM) | – | – | – | –
Cc1c(N2C[C@@H](CCO)[C@@H](CCO)C2)c(F)cc2c(=O)c(C(=O)O)cn(C3CC3)c12 [drawing 414] | 0.06 mg/L (≈ 0.143 µM) | 0.002 mg/L (≈ 0.00478 µM) | 0.03 mg/L (≈ 0.0717 µM) | 0.03 mg/L (≈ 0.0717 µM) | – | – | – | –
Cc1c(N2CC(CO)C3(CC3)C2)c(F)cc2c(=O)c(C(=O)O)cn(C3CC3)c12 (centres unmarked) [drawing 428] | 0.06 mg/L (≈ 0.155 µM) | 0.004 mg/L (≈ 0.0104 µM) | 0.06 mg/L (≈ 0.155 µM) | 0.06 mg/L (≈ 0.155 µM) | – | – | – | –
